Entries after “also recorded” stand apart in the source; their conditions may differ.
Columns and labels:
MCF-7 cells [1] = assay: FACS analysis of CD44high/CD24low CSC-like subpopulation in MCF-IM model; assay type: cell-based, human; settings: for CSC formation (CD44high/CD24low, FACS): compound 27 1 uM for 24 hours pre-treatment, PMA 0.65 ng/ml 60 h; for CD44 high CD24 low CSC-like subpopulation (FACS): bisindolylmaleimide-I 100 nm and 1 μM or Go6976 1 μM prior to PMA 60 hrs
Experimental: (§1) The adherent human mammary adenocarcinoma MCF-7 and MDA-MB-231 cells were cultured in low glucose DMEM (Gibco) and both supplemented with 10% FCS, 2 mM L-glutamine and 0.1% PSN antibiotics. Cells were stimulated with 0.65 ng/ml of phorbol 12-myristate 13-acetate (PMA) (Sigma-Aldrich) or 20 ng/ml of TGF-β (R&D systems) for the times indicated. For Bisindolylmaleimide-I (Calbiochem) or PKC-θ peptide inhibitor (Calbiochem) studies, cells were pre-treated with 1 μM or 30 μM of inhibitor respectively for 1 h prior to stimulation in MCF-7 cells. In case of MDA-MB-231, cells were treated with 4 μM or 30 μM Bisindolylmaleimide-I or PKC-θ peptide inhibitor respectively.
(§2) To separate CSC from non-CSC (NCSC), florescence activated cell sorting (FACS) was performed on single-cell suspensions that were stained with anti-CD44-APC (559942, BD Biosciences) and anti-CD24-PE antibodies (555428, BD Biosciences) along with Hoechst 33258 to monitor cell viability. As used throughout this work, CSC are defined by minority CD44^high/CD24^low, whereas NCSC are defined by rest of the cell populations.

NF-κB p65 = assay: Immunoblotting of MCF-IM nuclear and cytoplasmic fractions for NF-κB p65; assay type: cell-based, human
Experimental: Immunoblot analysis was performed according to the manufacturer's protocol and as previously described (Rao et al., 2003 c-Rel is required for chromatin remodeling across the IL-2 gene promoter. Journal of immunology 170:3724-3731.) with anti-PKC-θ (sc-212, SantaCruz), anti-p65 (ab7970, Abcam), anti-p65 phospho (ser-468) (3039, Cell Signaling), anti-p65 phospho (ser-536) (3031, Cell Signaling) and RNA Pol II(c-21) (ab817, Abcam) antibodies.

PKC = PKC ELISA-based kinase assay of nuclear or cytoplasmic extract from MCF-IM; assay type: cell-based, human; settings: assays without specific immunoprecipitates, global PKC activity (FIG. 6B)
Experimental: (§3) PKC activity assay were purchased from Enzo Life Sciences (DI-EKS-420A) and assays were performed according to the manufacture's protocol as previously described (Sutcliffe, 2012, supra).
(§4) PKC-θ and PKC-β activity assays (Enzo Life Sciences; DI-EKS-420A) were performed according to the manufacturer's protocol and as previously described (Sutcliffe et. Al., 2012. Chromatinized Protein Kinase C-theta: Can It Escape the Clutches of NF-kappaB? Front Immunol 3:260).

MCF-7 cells [2] = assay: TaqMan real time PCR transcript analysis of inducible EMT/CSC genes in MCF-IM model; assay type: cell-based, human; settings: for transcription of key inducible EMT/CSC genes (laminin-5, uPAR, CD44): 1 hour prior to PMA 60 hrs
Text: (§5) Human TaqMan™ primer sets used were: CD44, Hs00153304, CD24, Hs00273561, uPAR, Hs00182181, Laminin-5, Hs00194333, Zeb-1, Hs00611018, Fibronectin, Hs00415006 and Integrin-β, Hs00168458 (Applied Biosystems). Primers used for SYBR Green real-time PGR are: Zeb1 (sense: 5′-[…]-3′ and antisense: 5′-[…]-3′) and Cyclophilin A (sense: 5′-[…]-3′ and antisense: 5′-CACCACATGCTTGCCATCC-3′).
(§6) Total RNA was extracted using TRIzol® Reagent (Invitrogen) and first strand cDNA was synthesized using the Superscript™ III RNase H-reverse transcriptase kit (Invitrogen). TaqMan® Gene Expression Assays and SYBR Green real-time PCR were performed as previously described (Sutcliffe et al., 2009, Molecular and Cellular Biology, 29: 1972-86). MicroRNA assays were performed with the TaqMan® MicroRNA Reverse Transcription Kit (ABI 4366596) and the data were normalized to RNU6B as previously described in Sutcliffe et al. ([…], Molecular Cell 41:704-719).

PKC-θ [3] = target: PKC-θ (Homo sapiens, UniProt Q04759); assay: PKC ELISA-based kinase assay, in-vitro PKC-θ activity; assay type: biochemical; settings: FIG. 6A
Experimental: as §3, §4

NF-κB p50 and p65 = assay: NF-κB activity assay (TransAM NF-κB Family kit), MCF-IM nuclear extracts; assay type: cell-based, human; settings: MCF-IM treated with C27 vs vehicle
Experimental: TransAM NF-κB Family kit was used for NF-κB activity assays (43296, Active Motif). Assays were performed according to the manufacturer's guidelines. 5 μg protein from MDA-MB231 or MCF-IM derived whole cell, nuclear and cytoplasmic extracts were used in triplicate for the assays. Raji nuclear extract was used as a positive control Wild-type and mutated consensus oligonucleotides were also used as a negative and positive controls respectively.

MCF-7 cells [4] = assay: EMT morphology by phase contrast microscopy in MCF-IM model; assay type: cell-based, human
Experimental: as §1, with “Cells were stimulated with 0.65 ng/ml of phorbol 12-myristate 13-acetate (PMA) (Sigma-Aldrich) or 20 ng/ml of TGF-β (R&D systems) for the times indicated.” left out
(§7) phase contrast microscopy was performed where cells were viewed at ×4 magnification (wound healing assay) or ×10 magnification (EMT) using an Olympus fluorescence 1X^71 microscope (Olympus) and images were captured using DPController software (2002 Olympus Optical Co. LTD) and analysed using Photoshop CS3 (Adobe Systems Inc.). Scans were taken with a 10 μm scale bar.

MDA-MB 231 cells [5] = assay: TaqMan real time PCR transcript analysis of EMT/CSC genes in basal/metastatic model; assay type: cell-based, human; settings: bisindolylmaleimide-I 4 μM
Text: as §5, §6

MCF-7 cells [6] = assay: Mammosphere assay in MCF-IM model; assay type: cell-based, human; settings: 1 μM for 1 hr prior to PMA stimulation, 6 days; mammospheres larger than 60 μm counted
Experimental: Mammosphere culture media components were purchased from StemCell Technologies and mammosphere assays were performed as recommended by the manufacturer's guidelines. Briefly, 40,000 cells/2 ml cell dilutions were then prepared and 2 ml of cells were seeded in the 6 well-ultralow adherent, flat bottom plates (Costar). Mammospheres larger than 60 μm were counted per well on day 7 and pictures were taken.

PKC-θ [7] = assay: ChIP assay of PKC-θ chromatin association at CSC inducible gene promoters in MCF-IM model; assay type: cell-based, human
Experimental: ChIP buffers were purchased from Upstate Biotechnology and ChIP assays were performed according to the protocol supplied by Upstate Biotechnology as previously described (Sutcliffe et al., 2011, Molecular Cell. 41:704-719 ). Antibody used were: Anti-PKC-θ (Santa Cruz, sc-212), Anti-PKC-θ Phospho s695 (Abcam, ab76568) and Pol II c-21 (Abcam, ab817), Promoter primers used for RT-PCR were human CD44 (Fwd: […], Rev: […]), uPAR(Fwd: […], Rev: […]) and IL-6 (Fwd: […], Rev: […]). Sequential ChIP assays performed as described previously by Sutcliffe et al., (2011, Molecular Cell. 41: 704-719).

MDA-MB 231 cells [8] = assay: FACS analysis of CD44high/CD24low CSC-like subpopulation in basal/metastatic model; assay type: cell-based, human; settings: bisindolylmaleimide-I 4 μM
Experimental: as §1, §2

MDA-MB 231 cells [9] = assay: EMT morphology by phase contrast microscopy in basal/metastatic model; assay type: cell-based, human; settings: Bisindolylmaleimide 4 μM
Experimental: as §1, §7

Chain of PKC-θ (Homo sapiens, UniProt Q04759) (Q04759 whole entry): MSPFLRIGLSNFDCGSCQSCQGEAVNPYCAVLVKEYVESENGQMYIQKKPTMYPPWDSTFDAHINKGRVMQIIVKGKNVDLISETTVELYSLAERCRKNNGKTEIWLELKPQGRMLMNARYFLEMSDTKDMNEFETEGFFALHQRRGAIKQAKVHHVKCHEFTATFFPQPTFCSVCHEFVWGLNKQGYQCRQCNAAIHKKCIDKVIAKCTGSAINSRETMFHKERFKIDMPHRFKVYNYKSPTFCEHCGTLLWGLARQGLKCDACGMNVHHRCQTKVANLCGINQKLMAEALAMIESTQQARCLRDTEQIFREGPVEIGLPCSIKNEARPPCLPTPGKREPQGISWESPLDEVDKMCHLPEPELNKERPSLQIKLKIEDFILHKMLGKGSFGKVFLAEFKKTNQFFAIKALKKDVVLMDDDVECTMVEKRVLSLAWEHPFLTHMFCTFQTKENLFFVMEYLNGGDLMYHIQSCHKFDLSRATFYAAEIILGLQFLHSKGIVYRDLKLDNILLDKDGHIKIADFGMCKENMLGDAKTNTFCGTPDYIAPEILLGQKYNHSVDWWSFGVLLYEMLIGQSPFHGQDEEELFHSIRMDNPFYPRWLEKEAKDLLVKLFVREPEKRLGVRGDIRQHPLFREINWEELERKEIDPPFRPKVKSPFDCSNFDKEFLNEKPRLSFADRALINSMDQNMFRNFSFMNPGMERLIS

**Q.** Which “CSC formation (CD44high/CD24low, FACS)” value (MCF-7 cells [1]) does the source give for `CC(C)[C@@](C)(O)[C@@H]1CN(c2nc(-c3n[nH]c4ncccc34)c(F)cc2Cl)CCN1` [Compound C27] here?
**A.** The value was “abolished CSC formation”.

**Q.** What about the “CSC formation (CD44high/CD24low, FACS)” value (MCF-7 cells [1]; listed as compound 27) of the same compound?
**A.** The value was “prevents CSC formation”.

**Q.** What about the “p65 in the cytoplasmic fraction” value (NF-κB p65; C27 treated epithelial and mesenchymal cells, cytoplasmic fraction) of the same compound?
**A.** Its value is “global accumulation of p65 was observed in the cytoplasmic fraction”.

**Q.** What about the “p65 phosphorylation at serine 468 in nuclear extracts” value (NF-κB p65; MCF-IM nuclear extracts, with or without compound 27) of the same compound?
**A.** The value was “this phosphorylation was inhibited”.

**Q.** What about the “p65 abundance in the nuclei (pan-p65 antibody)” value (NF-κB p65; epithelial and mesenchymal state, nuclear fraction) of the same compound?
**A.** The value was “inhibited p65 abundance in the nuclei”.

**Q.** And the “PKC-θ activity in nuclear and cellular extracts from MCF-IM pre-treated with C27” value (PKC)?
**A.** The value was “abrogated PKC-θ activity”.

**Q.** What about the “transcription of CSC inducible genes” value (MCF-7 cells [2]; C27 treatment, FIG. 6D) of the same compound?
**A.** The value was “abolished”.

**Q.** What about the “PKC-θ activity, in-vitro PKC-θ activity assay” value (PKC-θ [3]) of the same compound?
**A.** The value was “abrogated PKC-θ activity”.

**Q.** What about the p50 nuclear activity (NF-κB p50 and p65) of the same compound?
**A.** The p50 nuclear activity was “significantly decreased”.

**Q.** And the p65 nuclear activity (NF-κB p50 and p65)?
**A.** The p65 nuclear activity was “significantly decreased”.

**Q.** Which “CD44 high CD24 low CSC-like subpopulation (FACS)” value (MCF-7 cells [1]) does the source give for `Cn1c2ccccc2c2c3c(c4c5ccccc5n(CCC#N)c4c21)CNC3=O` [Go6976] here?
**A.** The value was “but not Go 6976 inhibits”.

**Q.** And the “PMA-induced CSC formation” value (MCF-7 cells [1]; pre-incubation with Go6976)?
**A.** Its value is “did not prevent”.

**Q.** And the “transcription of key inducible EMT/CSC genes (laminin-5, uPAR, CD44)” value (MCF-7 cells [2]; 1 μM)?
**A.** The value was “failed to inhibit transcription of key inducible EMT/CSC genes”.

**Q.** What about the “PMA-induced EMT-like morphological changes” value (MCF-7 cells [4]; pre-incubation with Go6976) of the same compound?
**A.** The value was “did not prevent PMA-induced EMT-like morphological changes”.

**Q.** With `CCCCCCCCCCCCCC(=O)O[C@@H]1[C@@H](C)[C@@]2(O)[C@@H](C=C(CO)C[C@]3(O)C(=O)C(C)=C[C@@H]23)[C@@H]2C(C)(C)[C@]12OC(C)=O` [PMA, Phorbol 12-Myristate 13-Acetate] as the compound, how does the “generation of CD44high/CD24low CSC like cells” value (MCF-7 cells [1]; induction of PKC pathway by PMA 0.65 ng/mL 60 hr) read?
**A.** The value was “results in the generation of CD44^high/CD24^low-CSC like cells”.

**Q.** And the “EMT (percentage of cells undergoing EMT, morphology)” value (MCF-7 cells [4]; PMA 20 ng/mL for 60 hr, compared with TNF-α, EGF, IL-6, TGF-β)?
**A.** Its value is “results in maximal EMT; also recorded: caused highest EMT changes”.

**Q.** With `CN(C)CCCn1cc(C2=C(c3c[nH]c4ccccc34)C(=O)NC2=O)c2ccccc21` [bisindolylmaleimide-I, Bisindolylmaleimide-I] as the compound, how does the “CD44 high CD24 low CSC-like subpopulation (FACS)” value (MCF-7 cells [1]) read?
**A.** The value was “only very high concentration of bisindolylmaleimide-I”.

**Q.** And the “transcription of key inducible EMT/CSC genes (laminin-5, uPAR, CD44)” value (MDA-MB 231 cells [5])?
**A.** The value was “inhibits transcription of key inducible EMT/CSC genes”.

**Q.** And the “transcription of key inducible EMT/CSC genes (laminin-5, uPAR, CD44)” value (MCF-7 cells [2]; 100 nM)?
**A.** The value was “cannot inhibit transcription of key inducible EMT/CSC genes”.

**Q.** And the “transcription of key inducible EMT/CSC genes (laminin-5, uPAR, CD44)” value (MCF-7 cells [2]; 1 μM)?
**A.** Its value is “inhibits transcription of key inducible EMT/CSC genes”.

**Q.** And the mammosphere formation (MCF-7 cells [6])?
**A.** Its mammosphere formation is “reduce mammosphere formation”.

**Q.** And the “binding of PKC-θ on the CD44 gene promoter (ChIP)” value (PKC-θ [7]; as worded in Example 4)?
**A.** Its value is “reduction of binding of PKC-θ on the CD44 gene promoter”.

**Q.** What about the “PKC-θ chromatin association across the uPAR promoter (ChIP)” value (PKC-θ [7]; bisindolylmaleimide-I 1 μM 1 hr pre-incubation, or siRNA 48 hrs, then PMA 60 hrs) of the same compound?
**A.** The value was “reduces its chromatin association across the uPAR promoter”.

**Q.** What about the “EMT (morphology)” value (MCF-7 cells [4]; bisindolylmaleimide 1 μM, 1 hr pre-treatment before PMA stimulation 60 hrs) of the same compound?
**A.** Its value is “inhibits EMT”.

**Q.** And the “CD44 high CD24 low CSC-like subpopulation (FACS)” value (MDA-MB 231 cells [8])?
**A.** Its value is “inhibits CD44 high CD24 low-CSC-like subpopulation”.

**Q.** And the “EMT (morphology)” value (MDA-MB 231 cells [9])?
**A.** Its value is “inhibits EMT”.
